“Also recorded” adds a separate entry of the source. Read-outs that look alike come from different tables or passages of the source. Residues, ends and D or L forms follow the SMILES beside them. No end group written: not given here.
Tests used:
ACE [1] = molecular target: T1, ACE (Oryctolagus cuniculus, UniProt P12822); assay: Effect of ACE on papain-generated peptides: hydrolysis of peptides by ACE followed by RP-HPLC; type: in vitro ADME, rabbit; conditions: for degradation of the peptide by ACE (in words): after up to 3 h pre-incubation with ACE; for Peaks: number of RP-HPLC peaks; for percentage of peptide cleavage by ACE: over the whole incubation period (0.5 to 3 h); for metabolised at 1 h / metabolised at 2 h / metabolised at 3 h / metabolised at 0.5 h: rabbit, isolated ACE (angiotensin-converting enzyme) solution, read-out: Cleavage (%)
T1 construct: the angiotensin-I-converting enzyme from rabbit lung (2 units/mg protein); purchased Sigma Chemical Co. (St. Louis, MO, USA); host or cells: rabbit lung (tissue-derived)
T1 sequence (P12822 34-1310): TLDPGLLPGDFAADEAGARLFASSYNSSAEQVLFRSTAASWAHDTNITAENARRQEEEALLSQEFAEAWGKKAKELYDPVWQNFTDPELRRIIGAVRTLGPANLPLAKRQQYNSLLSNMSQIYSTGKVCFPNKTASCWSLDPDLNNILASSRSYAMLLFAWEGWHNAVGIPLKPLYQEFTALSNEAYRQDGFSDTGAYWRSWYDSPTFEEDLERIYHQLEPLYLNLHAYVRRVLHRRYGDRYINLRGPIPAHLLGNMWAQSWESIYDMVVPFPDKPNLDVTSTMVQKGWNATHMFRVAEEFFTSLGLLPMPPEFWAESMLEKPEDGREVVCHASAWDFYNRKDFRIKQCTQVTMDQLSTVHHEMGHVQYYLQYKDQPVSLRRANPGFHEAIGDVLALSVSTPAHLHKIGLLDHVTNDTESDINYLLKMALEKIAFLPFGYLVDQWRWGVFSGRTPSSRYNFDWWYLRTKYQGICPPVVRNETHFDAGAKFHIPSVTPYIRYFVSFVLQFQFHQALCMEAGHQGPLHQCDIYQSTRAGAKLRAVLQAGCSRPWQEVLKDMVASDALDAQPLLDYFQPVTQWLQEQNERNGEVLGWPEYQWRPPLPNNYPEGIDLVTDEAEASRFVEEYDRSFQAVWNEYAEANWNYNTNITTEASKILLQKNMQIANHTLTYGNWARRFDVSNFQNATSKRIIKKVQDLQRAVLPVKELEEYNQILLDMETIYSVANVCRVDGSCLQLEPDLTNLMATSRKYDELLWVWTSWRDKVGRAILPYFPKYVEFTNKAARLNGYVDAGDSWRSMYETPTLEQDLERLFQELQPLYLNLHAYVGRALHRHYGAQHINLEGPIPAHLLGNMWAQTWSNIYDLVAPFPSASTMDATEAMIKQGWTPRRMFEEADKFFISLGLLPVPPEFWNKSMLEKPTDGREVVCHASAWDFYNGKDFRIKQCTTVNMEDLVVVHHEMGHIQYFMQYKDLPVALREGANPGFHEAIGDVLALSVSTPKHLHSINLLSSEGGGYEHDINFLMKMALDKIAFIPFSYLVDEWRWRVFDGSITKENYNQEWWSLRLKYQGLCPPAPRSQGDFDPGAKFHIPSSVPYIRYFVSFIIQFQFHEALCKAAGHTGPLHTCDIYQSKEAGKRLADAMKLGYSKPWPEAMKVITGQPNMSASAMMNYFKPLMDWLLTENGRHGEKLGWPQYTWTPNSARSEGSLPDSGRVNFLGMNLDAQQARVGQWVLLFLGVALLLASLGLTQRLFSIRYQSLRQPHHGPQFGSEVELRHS
Description: The effect of ACE on papain-generated peptides was analyzed following the method of [Yang et al. (2003)] with some modifications. Briefly, 225 µL of the peptide solution of YGIKVGYAIP,
GGIF, GIFE at concentrations of 2, 4, and 4 mM were separately incubated with 150 µL of ACE (100 mU/mL) at 37 °C. Samples were withdrawn at incubation times of 0, 0.5, 1, 2, and 3 h and kept on ice prior to analysis by HPLC. A 20-µl sample was loaded onto a Hypersil GOLD C18 column (4.6×250 mm) attached to a Shimadzu (Kyoto, Japan) LC 20AT apparatus. The column was conditioned with eluent A (0.1 % TFA in DI) and eluted with 100 % eluent A from 0 to 10 min. The peptides were eluted with eluent B (0.1 % TFA in CH3CN) with a gradient elution of 0–100 % for 10–50 min. The absorbance was read at 215 nm.
To evaluate the possible degrading effects of ACE on the bioactive peptides generated from palm kernel cake proteins prior to examining their inhibitory activity, the peptides were preincubated with ACE in a water bath shaker at 37 °C for 0.5 h, 1 h, 2 h and 3 h, and the resulting peptides were analyzed using RP-HPLC.

ACE [2] = molecular target: T1, ACE; assay: Kinetics study of ACE inhibition (Lineweaver-Burk / Michaelis-Menten, HHL 15 to 4000 µM); type: biochemical, rabbit; conditions: from plot of 1/Vmax against inhibitor concentration; read-out: Kiu (enzyme-inhibitor dissociation constant)
Description: To determine the mode of enzyme inhibition, Lineweaver-Burk plots of 1/v versus 1/[S] were used. ACE inhibition was determined in the presence of five concentrations of HHL from 15 to 4000 µM and four concentrations of peptides, as shown in Table 1.
Enzyme activity was expressed as nmol hippuric acid produced per min of enzymatic reaction. Kiu was calculated from the plot of 1/Vmax against inhibitor concentration at the intercept on the inhibitor concentration axis ([Cornish-Bowden, 2013]). Vmax and Km were calculated using GRAPHPAD PRISM 5 (GraphPad, Software Inc., San Diego, CA). Michaelis-Menten and Lineweaver-Burk plots were also created using the same software.

[3] = molecular target: T2, angiotensin-I-converting enzyme from rabbit lung (Oryctolagus cuniculus, UniProt P12822); assay: ACE inhibitory activity evaluation (HHL substrate, hippuric acid read at 410 nm); type: biochemical; conditions: for ACE inhibitory activity (%): Table 5; for ACE-inhibitory capacity (%) With pre-incubation: with pre-incubation with ACE (3 h); for ACE-inhibitory capacity (%) Without pre-incubation: without pre-incubation with ACE
T2 construct: the angiotensin-I-converting enzyme from rabbit lung (2 units/mg protein); purchased Sigma Chemical Co. (St. Louis, MO, USA); host or cells: rabbit lung (tissue-derived)
T2 sequence (P12822 34-1310): T1 sequence (P12822 34-1310)
Description: ACE inhibitory potency of peptides was determined following the method described by [Forghani et al. (2016)]. […] The mixture was incubated with Hippuryl-histidyl-leucine (HHL) solution (50 μL) containing 0.1 M borate buffer pH 8.3 and 0.3 M NaCl at 37 °C for 60 min. To terminate the enzymatic reaction, 75 μL of 1 M HCl was added to the mixture. Subsequently 150 μL of pyridine were layered followed by addition of 75 μL of benzenesulfonyl chloride, and the mixture was vortexed for 1 min before being cooled on ice. The absorbance was recorded at 410 nm using a micro plate reader (Labomed, model UVD-2950, USA Power Wave X 340, Biotek Instruments. Inc.,Winooski, VT, USA). The standard curve of hippuric acid (HA) was constructed by plotting absorbance versus _mol of HA produced in 1 mL of reaction volume.

ACE [4] = conditions: literature peptides, read-out: Kiu, cited from earlier work
[5] = incubation with ACE (100 mU/mL) 37 °C, 0.5 h, peptide 2 mM (YGIKVGYAIP), 4 mM (GGIF, GIFE)

Compound | Peaks (ACE [1]; incubation with ACE 37 °C, 1 h) | Peaks (ACE [1]; incubation with ACE 37 °C, 2 h) | Peaks (ACE [1]; incubation with ACE 37 °C, 3 h) | Peaks (ACE [1]; [5]) | percentage of peptide cleavage by ACE (ACE [1]) | metabolised at 1 h (ACE [1]; incubation with ACE 37 °C, 1 h) [%] | metabolised at 2 h (ACE [1]; incubation with ACE 37 °C, 2 h) [%] | metabolised at 3 h (ACE [1]; incubation with ACE 37 °C, 3 h) [%] | metabolised at 0.5 h (ACE [1]; [5]) [%] | Ki (ACE [2]) [µM] | IC50 [3] [µM] | ACE inhibitory activity (%) [3] [%] | ACE-inhibitory capacity (%) With pre-incubation [3] [%] | ACE-inhibitory capacity (%) Without pre-incubation [3] [%] | Cleavage (%) (ACE [1]; incubation with ACE 37 °C, 2 h) | Cleavage (%) (ACE [1]; [5]) | degradation of the peptide by ACE (in words) (ACE [1]) | Ki (ACE [4]; ref He, Aluko & Ju (2014)) [µM] | Ki (ACE [4]; ref Girgih, He & Aluko (2014)) [µM]
RALP | – | – | – | – | – | – | – | – | – | – | – | – | – | – | – | – | – | 104 | –
WVYY | – | – | – | – | – | – | – | – | – | – | – | – | – | – | – | – | – | – | 60
WYT | – | – | – | – | – | – | – | – | – | – | – | – | – | – | – | – | – | – | 1830
YGIKVGYAIP [YGIKVGYAIP] | 5 | 5 | – | 5 | – | 84 ± 1.6 | 95 ± 3.2 | 98 ± 3.1 | 70 ± 2.2 | 54 | 1 | 100 ± 3.00 | 93 ± 2.40 | 100 ± 3.00 | 95 | 70 | degraded; also recorded: not resistant to ACE | – | –

More lines, main results first:

Peaks (ACE [1]; incubation with ACE 37 °C, 1 h) | Peaks (ACE [1]; incubation with ACE 37 °C, 2 h) | Peaks (ACE [1]; incubation with ACE 37 °C, 3 h) | Peaks (ACE [1]; [5]) | percentage of peptide cleavage by ACE (ACE [1]) | metabolised at 1 h (ACE [1]; incubation with ACE 37 °C, 1 h) [%] | metabolised at 2 h (ACE [1]; incubation with ACE 37 °C, 2 h) [%] | metabolised at 3 h (ACE [1]; incubation with ACE 37 °C, 3 h) [%] | metabolised at 0.5 h (ACE [1]; [5]) [%] | Ki (ACE [2]) [µM] | IC50 [3] [µM] | ACE inhibitory activity (%) [3] [%] | ACE-inhibitory capacity (%) With pre-incubation [3] [%] | ACE-inhibitory capacity (%) Without pre-incubation [3] [%] | Cleavage (%) (ACE [1]; incubation with ACE 37 °C, 2 h) | Cleavage (%) (ACE [1]; [5]) | Compound | degradation of the peptide by ACE (in words) (ACE [1]) | Ki (ACE [4]; ref He, Aluko & Ju (2014)) [µM] | Ki (ACE [4]; ref Girgih, He & Aluko (2014)) [µM]
1 | 1 | 1 | 1 | approximately 1.5% | 1 ± 0.2 | 1 ± 0.4 | 2 ± 0.6 | 1 ± 0.1 | 1270 | 92 | 97 ± 2.17 | 87 ± 2.70 | 97 ± 2.18 | – | – | CC[C@H](C)[C@H](NC(=O)CNC(=O)CN)C(=O)N[C@@H](Cc1ccccc1)C(=O)O [GGIF] (H-GGIF-OH; N-terminus and C-terminus assumed) | resistant to ACE; also recorded: resistant and were not degraded | – | –
1 | 1 | 1 | 1 | ~0% | 0 | 0 | 0 | 0 | 18000 | – | 40 ± 1.00 | 43 ± 1.80 | 40 ± 1.00 | – | – | CC[C@H](C)[C@H](NC(=O)CN)C(=O)N[C@@H](Cc1ccccc1)C(=O)N[C@@H](CCC(=O)O)C(=O)O [GIFE] (H-GIFE-OH; N-terminus and C-terminus assumed) | resistant; also recorded: resistant and were not degraded | – | –

— PMC9789325, “Inhibition kinetics, molecular docking, and stability studies of the effect of papain-generated peptides from palm kernel cake proteins on angiotensin-converting enzyme (ACE)” (Food Chemistry: Molecular Sciences, 2022)
